Legend:
NGF [1] = assay: NGF expression in the brain of normal mouse (EIA); type: in vivo; conditions: normal mice, 24 hr after final administration, vs control
Procedure: (§1) 5-week-old male ddy mice (Japan LLC, Inc.) were divided into the following three groups (9 mice per group) and subjected to a test. • Group 1 (Control) Phosphate buffered saline (PBS) was intraperitoneally administered to the mice once a day for 7 days. • Group 2 APA (0.75 mg/kg) dissolved in PBS was intraperitoneally administered to the mice once a day for 7 days. • Group 3 APA (7.5 mg/kg) dissolved in PBS was intraperitoneally administered to the mice once a day for 7 days.
(§2) In every group, the mice were decapitated at 24 hr after the final administration and the cerebral cortex and striatum thereof were removed.
(§3) The removed cerebral cortex and striatum were weighed, a homogenizing buffer (0.1M Tris-phosphate buffer (pH 7.4) containing 1M sodium hydrochloride, 2% BSA, 2 mM EDTA, 0.2% sodium azide) supplemented with aprotinin (80 TIU/L) was added in an amount of 19-fold volume of the weight, and the mixture was sonicated 30 times. […]
(§4) The concentration of neurotrophic factor in each sample was measured using EIA according to the method of Furukawa et al. (Journal of Neurochemistry), 40, 734-744 (1983)} in the case of NGF, and using EIA according to the method of Nitta et al. {pp. 463-467 of “Mapping the progress of Alzheimer's and Parkinson's Disease” (2002) edited by Mizuno et al.}, in the case of GDNF. […]

GDNF [2] = assay: GDNF expression in the brain of normal mouse (EIA); type: in vivo; conditions: normal mice, 24 hr after final administration
Procedure: as §1, §2, §3, §4

[3] = Observation of normal mice after 7 consecutive days of intraperitoneal APA; type: in vivo, mouse; conditions: normal ddy mice, APA i.p. once a day for 7 days (0.75 or 7.5 mg/kg)
Procedure: as §1

dopaminergic nerve = assay: Functional evaluation of dopaminergic nerve: methamphetamine-induced one side cycling movement in 6-OHDA mouse model of Parkinson's disease; type: in vivo; conditions: 6-OHDA striatum destruction, counted 10-20 min after methamphetamine 10 mg/kg, no-APA group 86.0±14.1
Procedure: 5-week-old male ddy mice (Japan LLC, Inc.) were divided into the following four groups (9 mice per group) and subjected to a test. Under pentobarbital anesthesia and without craniotomy, a needle of a microsyringe was punctured through the head skin into the striatum of the right brain, and 1 μL of 6-hydroxydopamine (6-OHDA, Sigma Co., 11.5 μg/μL) dissolved in physiological saline containing 0.05% ascorbic acid was injected. • Group 1 (Control) Physiological saline containing only ascorbic acid was injected, whereby the striatum was not damaged. […]
The mouse models of Parkinson's disease of each of the above-mentioned groups were allowed to search freely in a transparent cylindrical container (glass, diameter 9 cm-height 12 cm) for 10 min, methamphetamine (DAINIPPON Pharmaceutical Co., Ltd., 10 mg/kg) was intraperitoneally administered, and the number of cycling in 10-20 min after administration was counted. […]

NGF [4] = assay: NGF expression in the cerebral cortex of mouse model of Parkinson's disease (EIA); type: in vivo; conditions: 6-OHDA mouse model
Procedure: (§5) The removed cerebral cortex and striatum were weighed, a homogenizing buffer (0.1M Tris-phosphate buffer (pH 7.4) containing 1M sodium hydrochloride, 2% BSA, 2 mM EDTA, 0.2% sodium azide) supplemented with aprotinin (80 TIU/L) was added in an amount of 19-fold volume of the weight, and the mixture was sonicated 30 times. After centrifugation (100,000 g×30 min) at 4° C., the supernatant was separated and the same amount of chloroform was added. The mixture was thoroughly stirred and centrifuged (20,000 g×10 min). The supernatant was separated and used as a sample for EIA (cryopreserved at −20° C. until use).
(§6) The concentration of neurotrophic factor in each sample was measured using EIA according to the method of Furukawa et al. (Journal of Neurochemistry), 40, 734-744 (1983)} in the case of NGF, and using EIA according to the method of Nitta et al. {pp. 463-467 of “Mapping the progress of Alzheimer's and Parkinson's Disease” (2002) edited by Mizuno et al.}, in the case of GDNF. The obtained values were multiplied by 20 to give a neurotrophic factor content of each brain region.
(§7) 5-week-old male ddy mice (Japan LLC, Inc.) were divided into the following four groups (9 mice per group) and subjected to a test. […]

GDNF [5] = assay: GDNF expression in the cerebral cortex of mouse model of Parkinson's disease (EIA); type: in vivo; conditions: 6-OHDA mouse model
Procedure: as §5, §6, §7

[6] = tested on: rats with injured spinal cord; assay: Walking ability of rats with spinal injury (BBB scale); type: in vivo, rat; conditions: spinal-injured Wistar rats, APA 0.75 mg/kg i.p. once a day
Procedure: 7-week-old male Wistar rats (Japan SMC, Inc.) were divided into the following three groups (12-17 rats per group) and subjected to a test. Pentobarbital sodium (DAINIPPON Pharmaceutical Co., Ltd., 35 mg/kg) was intraperitoneally injected to the rats, median incision was applied to the back, and paraspinal muscle was bluntly detached. After laminectomy of the 12th thoracic vertebra, the left spinal cord was cut at the same position with a sharp cutting tool. After 5 hr from the cutting, the rats confirmed to have anesthetic disorder in the left hind paw were subjected to the following test. • Group 1 PBS was intraperitoneally administered to rats with uninjured spinal cord (sutured without cutting the spinal cord after laminectomy of the 12th thoracic vertebra). • Group 2 PBS was intraperitoneally administered to rats with injured spinal cord. • Group 3 APA (0.75 mg/kg) dissolved in PBS was intraperitoneally administered to rats with injured spinal cord.
In every group, the administration was performed once a day for 20 days from the day of spinal injury. Evaluation method of walking ability of rats with injured spinal cord: The rats were placed in a box (length 1 m×width 1 m×height 30 cm) painted in gray, allowed to search freely, and evaluated in 21 levels according to 21-Point Basso-Besttie-Bresnahan Locomotor Rating Scale (BBB scale).

[7] = APA 0.75 mg/kg i.p. once a day for 7 days
[8] = APA 7.5 mg/kg i.p. once a day for 7 days

Compound: CC(=O)N1CCCC[C@H]1C(=O)O [APA, N-acetyl-L-pipecolic acid]
- NGF expression amount in the cerebral cortex (NGF [1]; APA 0.75 and 7.5 mg/kg i.p. once a day for 7 days): tended to increase in a dose-dependent manner
- NGF expression amount in the striatum (NGF [1]; APA 0.75 or 7.5 mg/kg i.p. once a day for 7 days): did not show remarkable difference from the control
- GDNF expression amount in the striatum, increase as compared to the control (GDNF [2]; [7]): 66.0%
- GDNF expression amount in the cerebral cortex (GDNF [2]; APA 0.75 or 7.5 mg/kg i.p. once a day for 7 days, vs control): no remarkable difference
- abnormal behavior, alopecia or decrease of body weight as compared to control mice [3]: did not show abnormal behavior, alopecia or decrease of body weight
- one side cycling movement (dopaminergic nerve; APA 0.75 mg/kg i.p. for 7 days): 40.9±17.3 times
- one side cycling movement (dopaminergic nerve; APA 7.5 mg/kg i.p. for 7 days): 47.1±13.1 times
- NGF expression amount in the cerebral cortex, increase (NGF [4]; [7]): 11.2%
- NGF expression amount in the cerebral cortex, increase (NGF [4]; [8]): 30.7%
- GDNF expression amount in the cerebral cortex, increase (GDNF [5]; [7]): 74.9%
- GDNF expression amount in the cerebral cortex, increase (GDNF [5]; [8]): 232.4%
- level of walking ability (BBB scale) ([6]; at day 23, injury-only group plateaued at score 15): recovery to almost the same level as before injury
- effect of APA administration on walking ability (BBB scale) ([6]; first 2 days): not observed
- level of walking ability (BBB scale) ([6]; from day 3): showed improvement from day 3

From patent US20050282865A1, “Neurotrophic factor production promoter” (FUJISAWA PHARMACEUTICAL CO., LTD., priority 2002, published 2005)
